Test results: article PMC3479139, “Diverse Small Molecule Inhibitors of Human Apurinic/Apyrimidinic Endonuclease APE1 Identified from a Screen of a Large Public Collection” (PLoS ONE, 2012)
pIC50: −log10 of the molar value. Like-named read-outs stand apart in the source and are kept apart here.

Assays:
APE1 [1] = biological target: T1, APE1 (Homo sapiens, UniProt P27695); experiment: Fluorogenic kinetic qHTS APE1 incision assay (primary screen and retest of cherrypicked samples); format: biochemical;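 also: purified APE1 cleaving a fluorophore/dark-quencher labelled 17-mer duplex DNA bearing a tetrahydrofuran AP site, fluorescence rise followed kinetically over the first 2 min, inhibition normalized to controls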
T1 construct: made in house
T1 sequence (P27695 whole entry): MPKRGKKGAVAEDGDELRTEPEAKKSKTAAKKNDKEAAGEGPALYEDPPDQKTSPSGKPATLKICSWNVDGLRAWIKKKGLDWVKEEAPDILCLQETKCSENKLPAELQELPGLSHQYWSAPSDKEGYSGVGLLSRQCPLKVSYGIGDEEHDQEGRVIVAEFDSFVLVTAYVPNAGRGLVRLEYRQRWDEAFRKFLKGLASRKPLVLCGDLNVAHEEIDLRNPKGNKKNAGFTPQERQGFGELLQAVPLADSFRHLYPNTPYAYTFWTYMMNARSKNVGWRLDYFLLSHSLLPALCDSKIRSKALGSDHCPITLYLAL

APE1 [2] = biological target: T1, APE1; experiment: Gel-based radiotracer (32P) APE1 incision assay; format: biochemical; design: concentration or dose not given beside the values; details: percent incision shown; entries 1-112;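 also: APE1 incision reactions ran 5 min at 37 °C, with cleaved product and intact substrate resolved electrophoretically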
APE1 [3] = biological target: T1, APE1; experiment: Fluorescence polarization (FP) displacement assay of APE1 binding to AP-DNA probe;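 also: TAMRA 5′-labeled duplex DNA with THF abasic site (5 nM) and APE1 (20 nM), Mg2+-free buffer, 15 min at room temperature, inhibition seen as lowered polarization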
[4] = biological target: double-stranded 17-mer DNA fragment; experiment: ThO (Thiazole Orange) DNA displacement assay; format: binding; details: read-out: ThO-DNA binding IC50;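 also: miniaturized displacement of the intercalating dye from unlabeled duplex DNA, used to flag nonspecific DNA binders, chiefly intercalators, groove binders may be missed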
E. coli Endo IV = biological target: T2, E. coli Endo IV (Escherichia coli, UniProt P0A6C1); experiment: E. coli Endo IV profiling counterscreen; format: biochemical;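 also: selectivity counterscreen of candidate APE1 inhibitors against the bacterial endonuclease Endo IV, run in the same assay format as the primary APE1 high-throughput screen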
T2 construct: made in house
Description: In order to screen out nonselective compounds, such as non-specific DNA binders and inhibitors of related enzymes, we used a miniaturized ThO DNA displacement assay and a counterscreen against the bacterial endonuclease E. coli Endo IV, respectively, following the previously published protocols [21].
To probe the selectivity of the candidate APE1 inhibitors, we tested them against E. coli EndoIV [36], employing the same assay as used in the HTS.

HeLa cells [5] = experiment: MMS potentiation assay (CellTiter Glo viability); format: cell-based, human; design: key: N.A., no activity observed; P, positive; I, inconclusive; N.T., not tested; details: for MMS Assay: potentiation of the genotoxic effect of methylmethane sulfonate
Description: HeLa cells were plated at 6000 cells/well in DMEM culture medium containing 10% FBS into white solid bottom 384-well cell culture plates. The plates were incubated at 37°C overnight for cell attachment, followed by media replacement. The fresh medium contained serial dilutions of compounds of interest in the presence (0.4 mM final) or absence of MMS. The plates were incubated for 24 h at 37°C. Cell viability was determined by luminescence detection after an addition of 15 µL of CellTiter Glo reagent (Promega, Madison, WI). Percent viability was calculated for each concentration of compound tested in duplicate by relating the corresponding luminescence to that of a negative DMSO vehicle control. MMS potentiation trends were defined as follows: negative (-), if cell viability in the compound-plus-MMS treatment was the same as that of the DMSO-plus-MMS control (overlapping dose-response curves); inconclusive (I), if the shift in the cell viability dose-response upon MMS inclusion relative to compound-alone was less than 30%; and positive (P), if the difference between the compound-plus-MMS and compound-alone curves was at least 30%, and maintained within at least a two-fold compound concentration span.
To examine the biological prospects of the top compounds, we tested their ability to inhibit APE1 DNA repair activity by assessing enhancement of MMS toxicity in mammalian cells. MMS creates methylated-base damage to genomic DNA, which, when excised by an alkylpurine DNA glycosylase, results in a high number of cytotoxic AP sites. We compared the viability of HeLa cells exposed to a dilution series of inhibitor alone to a combination of a fixed MMS concentration with the same dilution series of inhibitor by using a standard CellTiter Glo luminescence assay. This technique measures the number of viable cells in culture based on quantitation of the ATP present, which signals the presence of metabolically active cells. The assay was further optimized for 384-well plates, allowing a high-throughput testing of multiple hits at multiple concentrations, a scope of investigation previously impossible due to the very low throughput of the traditionally applied colony formation assay.
From the 223 compounds found positive in the gel-based APE1 assays, exclusion of the most promiscuous hits, that is, those that were both DNA binders and EndoIV-inhibitory, yielded a set of 170 compounds (Figure 3). This shortened group of hits was tested in the cell-based potentiation assay for their ability to dose-dependently enhance sensitivity of HeLa cells to the alkylating agent MMS.

HeLa cells [6] = experiment: AP site measurement in genomic DNA; format: cell-based, human; details: for AP site levels, combination versus MMS-alone, repeat testing / AP site levels, combination treatment versus MMS-alone: 275 µM MMS plus inhibitor; for AP site levels, combination versus MMS-alone, repeat testing: repeat test (Figure S1); for AP site levels, combination treatment versus MMS-alone / AP sites upon treatment with the inhibitor alone: 24 h; for AP site levels, combination treatment versus MMS-alone: initial test (Figure 8); for AP sites upon treatment with the inhibitor alone: inhibitor alone vs vehicle
Description: HeLa cells at 80% confluency (6×10^5 cells) were subjected to the following treatments in a 6-well plate for 24 hours at 37°C: 1) DMSO alone, 2) 275 µM MMS, 3) APE1 inhibitors dissolved in DMSO (5–20 µM final compound concentration), and 4) the inhibitors as in treatment 3 in combination with 275 µM MMS. Cells were then harvested and processed using a Qiagen Genomic DNA isolation kit (Germantown, MD). After DNA quantitation, AP sites were measured using the DNA Damage Quantification kit from Dojindo Molecular Technologies (Rockville, MD).
As stated above, the application of the genotoxic agent MMS results in an increase in the level of AP sites within the genome. An effective APE1-targeted inhibitor applied under the conditions of increased genotoxic stress is expected to interfere with the repair of AP sites, while ideally having no effect on the AP site levels when applied as a single agent. Thus, the net effect of treating cells with a combination of MMS and inhibitor would be an increase in the number of AP site lesions. To determine the effect on AP site accumulation caused by treatment with MMS in combination with an APE1 inhibitor, as compared to treatment with MMS or inhibitor alone, we measured AP site levels in the chromosomal DNA from HeLa cells using an aldehyde-reactive probe-based colorimetric assay. The concentrations of MMS and inhibitor (275 µM for MMS and between […] for the inhibitor, respectively) were selected to fall below the onset of cytotoxicity for each agent based on the analysis of the MMS potentiation data shown in Figure 5.

[7] = test system: human immunodeficiency virus integrase; design: method as in PMID 9865384; details: cited from earlier work
APE1 [8] = biological target: T1, APE1; experiment: Gel-based APE1 incision assay with fluorescence (TAMRA) detection; format: biochemical
[9] = initial quantitative high-throughput screen, read-out: APE1 qHTS IC50
[10] = retest of cherrypicked sample, read-out: APE1 Retest IC50
[11] = estimated IC50, fluorophore detection, entries 113-223, read-out: F-PAGE Assay IC50
[12] = entries 113-223: fluorophore detection, estimated IC50, read-out: Gel-based electrophoretic separation assay with fluorophore detection, estimated IC50 (column headed Radiotracer Assay (%Activity))

SMILES	pIC50 (APE1 [1]; initial qHTS, 7-point titration, read-out: qHTS, IC50 obtained in the initial quantitative high-throughput screen)	pIC50 (APE1 [1]; [9])	pIC50 (APE1 [1]; [10])	Radiotracer Assay (%Activity) (APE1 [2])	pIC50 (APE1 [3]; read-out: FP IC50)	pIC50 [4]	pIC50 (E. coli Endo IV; read-out: EndoIV IC50)	MMS Assay (HeLa cells [5])	AP site levels, combination versus MMS-alone, repeat testing (HeLa cells [6])	AP site levels, combination treatment versus MMS-alone (HeLa cells [6])	pIC50 (APE1 [1]; APE1 Retest IC50, retest of cherrypicked sample)	pIC50 (APE1 [1]; APE1 qHTS IC50, initial quantitative high-throughput screen)	pIC50 (APE1 [3])	pIC50 (E. coli Endo IV)	HIV integrase IC50 [7]	pIC50 (APE1 [8]; [11])	AP sites upon treatment with the inhibitor alone (HeLa cells [6])	pIC50 (APE1 [8]; [12])	MMS Assay: potentiation of the genotoxic effect of methylmethane sulfonate (HeLa cells [5])
COc1ccc(Cc2nnc(NC(=O)Cc3cccs3)s2)cc1OC [MLS000115025]	4.55	4.55	5.70	48%	< 4.24	< 4.24	< 4.24	P	support the initially-observed enhancements	obscured by large standard deviations	–	–	–	–	–	–	–	–	–
O=C1NC(=O)N(Cc2ccco2)C(=O)C1=CC=Cc1ccco1 [MLS000587064]	–	–	–	14%	–	< 4.24	–	P	support the initially-observed enhancements	obscured by large standard deviations	5.30	5.55	< 4.24	< 4.24	–	–	–	–	–
COc1ccc2c(c1)c(=O)oc1cc(OCC(=O)N3CCc4ccccc4C3)ccc12 [MLS000594187]	–	5.00	5.41	51%	< 4.24	< 4.24	< 4.24	P	–	no statistical significance	–	–	–	–	–	–	–	–	–
COc1ccc(CN2C(=O)NC(=O)/C(=C\c3ccco3)C2=O)cc1 [MLS000723827]	–	4.65	4.85	18%	< 4.24	< 4.24	< 4.24	I	–	–	–	–	–	–	–	–	–	–	–
O=c1oc2c(cc1O)oc(=O)c1cc(O)c(O)c(O)c12 [MLS000737267, galloflavin]	–	6.40	6.89	46%	< 4.24	5.20	< 4.24	P	–	no statistical significance	–	–	–	–	low-micromolar	–	–	–	–
COc1ccc(CCn2c(O)cc3nn(-c4nc5ccccc5s4)c(=O)c-3c2C)cc1 [MLS000763226]	–	4.50	4.80	20%	< 4.24	5.00	< 4.24	I	–	–	–	–	–	–	–	–	–	–	–
O=C(O)c1cccc(-n2cccc2/C=C/[N+](=O)[O-])c1 [MLS000778420]	–	5.41	5.35	46%	< 4.24	< 4.24	< 4.24	P	–	–	–	–	–	–	–	–	–	–	–
O=C1/C(=C/C=C/c2ccco2)SC(=S)N1NS(=O)(=O)c1ccccc1 [MLS000778639]	–	5.60	5.46	6%	< 4.24	< 4.24	< 4.24	I	–	–	–	–	–	–	–	–	–	–	–
COc1cc2c(ccc3cc(OC)c(OC)c(O)c32)cc1O [MLS000863573]	–	6.15	6.22	4%	4.90	4.95	–	P	–	no statistical significance	–	–	–	5.05	–	–	–	–	–
COc1c(-c2ccc(O)cc2)oc2cc(O)cc(O)c2c1=O [MLS000877008]	–	5.96	5.55	43%	< 4.24	< 4.24	< 4.24	I	–	–	–	–	–	–	–	–	–	–	–
CC1CCc2c(sc(NC(=O)/C=C/c3cccs3)c2C(=O)O)C1 (stereo not drawn) [MLS000974674]	–	4.92	4.34	–	< 4.24	4.44	< 4.24	P	–	–	–	–	–	–	–	5.20	–	–	–
CC1CCN(C2=NN3C(=N)/C(=C\c4ccc(OC(=O)c5ccco5)cc4)C(=O)N=C3S2)CC1 [MLS001076862]	–	4.97	–	–	–	< 4.24	< 4.24	P	–	no statistical significance	–	–	–	–	–	5.40	noticeable increase in AP sites	–	–
COc1ccc(C(=O)Nc2ccnn2C2CCN(Cc3ccc4nonc4c3)CC2)cc1 [MLS001090278]	–	5.28	4.99	–	< 4.24	< 4.24	< 4.24	–	–	–	–	–	–	–	–	–	–	5.00	I
CCc1cc(CNC(=O)c2ccc(OC3CCN(CCc4ccccc4)CC3)cc2)on1 [MLS001105846]	–	4.92	5.19	–	4.49	< 4.24	< 4.24	P	–	–	–	–	–	–	–	5.35	–	–	–
O=C1COc2ccc(C(=O)COC(=O)/C=C/c3ccc(Br)o3)cc2N1 [MLS001142042]	–	5.33	4.84	–	< 4.24	< 4.24	< 4.24	I	–	–	–	–	–	–	–	5.66	–	–	–
N#C/C(=C\c1ccc(O)c(O)c1)C(=O)Nc1cccc2ncccc12 [MLS001173932]	–	5.52	5.29	–	< 4.24	5.70	< 4.24	I	–	–	–	–	–	–	–	6.22	–	–	–
O=C(O)C1Nc2ccc(Br)cc2C2C=CCC12 (stereo not drawn) [MLS001209038]	–	4.87	4.74	–	< 4.24	4.59	< 4.24	I	–	–	–	–	–	–	–	5.20	–	–	–
Cc1cccn2c(=O)c3cc(C(=O)NCc4ccco4)c(=N)n(C4CCCCC4)c3nc12 [MLS001217741]	–	4.77	4.89	–	< 4.24	< 4.24	< 4.24	–	–	–	–	–	–	–	–	–	–	4.65	P
COc1ccc2nc3cc(Cl)ccc3c(Nc3cc(CN4CCCC4)c(O)c(CN4CCCC4)c3)c2n1 [MLS001306480, pyronaridine, reference compound]	–	4.82	5.19	–	4.49	< 4.24	–	–	–	–	–	–	–	4.54	–	–	noticeable increase in AP sites	4.90	P
CC(=O)Oc1cc(C(=O)OCC(=O)N2CCc3ccccc3C2)cc(OC(C)=O)c1OC(C)=O [MLS002252117]	–	5.28	4.94	–	< 4.24	< 4.24	< 4.24	I	–	–	–	–	–	–	–	5.35	–	–	–
